Earlier results on 2 compounds are cited in patent US20060287318A1, “Method for treating glaucoma III B” (priority 2000, published 2006).

For data set [1] the following is noted: literature description of a compound series.
In data set [2] the test system is Rhesus monkeys. The settings on record: accommodative responses to i.m. pilocarpine; reported in the concurrently filed application "Methods for Treating Glaucoma I".
The test system of data set [3] is Aged Rhesus monkeys. The settings on record: drug treated vs. control eye; baseline and pilocarpine-stimulated conditions; reported in the concurrently filed application "Methods for Treating Glaucoma I".

With `Cc1ccc(C(=O)C[n+]2ccccc2)cc1.[Cl-]` [1-[2-(4-methylphenyl)-2-oxoethyl]-pyridinium chloride], the glucose lowering effect result in data set [1] is “inactive”.
As for `Cc1sc[n+](CC(=O)c2ccccc2)c1C.[Cl-]` [4,5-dimethyl-3-(2-oxoethyl-phenethyl)thiazolium chloride], in data set [2], the improvement in accommodation result is “Improvement in accommodation has been illustrated”. Besides, in data set [3], the “improvement in ophthalmologic function (fluid outflow facility)” value is listed as “improvement has been illustrated”.
